Results on one compound are retold here after patent US20030113916A1, “Method for producing somatic embryos of scot pine (p sylvestris)” (priority 2000, published 2003).

In the assay the test system is embryogenic cell lines F1, F2-1, F2-2, F2-3 (previously cryopreserved). As to the kind of experiment: Maturation of somatic embryos on media with different ammonium to nitrate molar ratios and carbon sources. The assay is classed as cell-based, Pinus sylvestris. The note with it: ABA tested at 20, 35 y 60 μM in previous evaluation.

Protocol: For maturation process is highly relevant the interaction between nitrogen and carbon source, and the type of the carbon source. […] High concentration of abscisic acid has to be added when starting maturation in order to acquire best quality embryos and avoiding precocious germination; high average of conifers protocols ABA concentration varying between 16 μM and 24 μM. However for Pinus genera ABA is required between 60 μM and 100 μM. […] In order to produce gymnosperm mature somatic embryos with normal germination, is required such embryos developing on medium supplemented with high concentration of desiccant compound.
Under the evaluation done to produce normal embryos, was utilized between 400 and 600 mg of embryogenic tissue per sample, such amount was dispersed on filter paper as no thin layer, with two washing only with liquid mineral medium and they were exposed only two weeks on medium supplemented with activated charcoal.

In the case of `CC1=CC(=O)CC(C)(C)[C@@]1(O)/C=C/C(C)=C\C(=O)O` [ABA, abscisic acid], the “Effect on maturation of the cell lines” value is listed as “non effect”.
